Experimental data taken from patent US20140130208A1, “METHODS AND MEANS TO PRODUCE ABIOTIC STRESS TOLERANT PLANTS” (VIB VZW, priority 2011, published 2014).

Assays:
[1] = system: Arabidopsis thaliana leaf 3; assay: Leaf 3 area of ACC deaminase transgenic lines and wild type after 48 hours on mild mannitol stress; type: in vivo; details: wild type of the pGRF5::bACD experiment; 48 hours on 25 mM mannitol
From the text: In this experiment we aimed for a downregulation of the ethylene signaling pathway only in proliferating leaf cells (chimeric genes with 2 different meristematic promoters: p4TM1 and pGR5) as compared to a downregulation of the ethylene signaling in the entire plant (chimeric gene with the […] promoter). The transgene which was used for downregulation of the ethylene signaling was the ACC deaminase (a bacterial form and a plant form), an enzyme that degrades the ethylene precursor ACC. […]
Plant were transferred to plates containing 25 mM mannitol, hereby exposing them to mild mannitol stress, at a stage where the third leaf is fully proliferating, allowing to study the response of proliferating leaf cells to stress. After 48 hours on mild mannitol stress, leaf 3 was microdissected and its size was measured to calculate the extent of growth inhibition. […]
The plant growth and stress set-up was the same as previously described (Skirycz et al (2011) Plant Cell 23: 1876-1888). […] Slides were photographed, and leaf area was measured using ImageJ 1.41o.

ACC levels in shoots = assay: Quantification of ACC in shoots by CE-MS; type: in vivo, Arabidopsis thaliana
Method: To find out whether differential transcripts reflect changes in hormone levels, we determined concentrations of the ethylene precursor ACC in complete shoots of 9-day-old plants transferred to mannitol. Already 1 h after stress onset, ACC levels were 30% higher in stressed than in control samples, although this was not significant, and by 10 h, the increase was more than 2-fold and significant (FIG. 7B). At the time of analysis, the shoot samples were mainly composed of expanding cells, reflecting the overall importance of ethylene signaling for the response of growing tissues to stress.
Freeze-dried samples were dissolved in 500 μl of methanol, including two internal standard compounds (4 μM methionine sulfone used for compensation of the peak area after capillary electrophoresis-mass spectrometry (CE-MS) analysis and 0.2 μM D4-ACC for quantification of ACC. After addition of 500 μl of chloroform and 200 μl of water, the mixture was vortexed for 3 min and centrifuged at 20,400 g for 3 min at 4° C. The upper layer was evaporated for 30 min at 45° C. by a centrifugal concentrator and then separated into two layers. The upper layer (100-200 μl) was centrifugally filtered through a Millipore 5-kD cutoff filter at 9,100 g for 90 min. […] The final solution (10 μL) was used to quantify the contents of ACC by cation analysis using CE-MS. […]

For `OC[C@@H](O)[C@@H](O)[C@H](O)[C@H](O)CO` [mannitol], the “growth inhibition of leaf 3 area” value [1] was “about 10%”, the “increase of ACC levels in stressed versus control shoots” value (ACC levels in shoots; 1 h after stress onset, not significant) was 30% and the “increase of ACC levels in stressed versus control shoots” value (ACC levels in shoots; 10 h after stress onset, significant) was “more than 2 fold”.
